Measured values: ChEMBL document CHEMBL1201862, “PubChem BioAssay data set” (2004)
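Dose response: 5 concentrations. Exposure: 48 h. Format: 96-well plates. Endpoint: linear interpolation; highest concentration if not reached. GI50: concentration for 50% inhibition of growth.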 The source made the active and inactive calls. Cut-off read from the data, not from the text of the source: active = GI50 up to about 1.1 µM and inactive = higher.

Experiments:
Test in all cases: growth of human tumour cells (NCI), 48 h
[1] = test system: M19-MEL
[2] = test system: HOP-18
[3] = test system: XF498
[4] = test system: DMS-273
[5] = test system: SNB-78
[6] = test system: LXFL 529
[7] = test system: DLD-1
[8] = test system: KM-20L2
[9] = test system: RXF 631

With `COc1ccc2c(c1OC)C1=C(C2=O)c2cc3c(cc2CCN1)OCO3` the GI50 [1] was 42.1 µM (inactive), the GI50 [2] was 52.5 µM (inactive) and the GI50 [3] was 40.3 µM (inactive). For the same compound, the GI50 [4] was 24.2 µM (inactive), the GI50 [5] was 89.7 µM (inactive) and the GI50 [6] was 33.1 µM (inactive). For the same compound, the GI50 [7] was 42.4 µM (inactive) and the GI50 [8] was 17.9 µM (inactive).
For `Cc1ccc(N(C(=O)CC(=O)N2N=C(c3ccccc3)C(/N=N/c3ccc([N+](=O)[O-])cc3)C2=O)C(=O)c2ccc(Cl)cc2)cc1` (centres undefined), the GI50 [1] was 26 µM (inactive), the GI50 [2] was 27.4 µM (inactive) and the GI50 [3] was 21.8 µM (inactive). The GI50 [4] was 5.94 µM (inactive), the GI50 [5] was 6.95 µM (inactive) and the GI50 [6] was 15.5 µM (inactive). The GI50 [7] was 21.2 µM (inactive) and the GI50 [8] was 23.3 µM (inactive).
In the case of `O=C(Cc1ccccc1)NN1C(=O)C(Cl)C1c1cccc([N+](=O)[O-])c1` (centres undefined), the GI50 [1] is reported as 5.16 µM (inactive), the GI50 [2] is reported as 31.3 µM (inactive) and the GI50 [3] is reported as 31.2 µM (inactive). For the same compound, the GI50 [4] was 36.5 µM (inactive), the GI50 [5] was > 71.8 µM (inactive) and the GI50 [6] was 14.2 µM (inactive). For the same compound, the GI50 [7] was 37.9 µM (inactive) and the GI50 [8] was > 83.4 µM (inactive).
With `Cc1ccc(S(=O)(=O)N/N=C(/CC(=O)c2c(C)[n+]([O-])c3ccccc3[n+]2[O-])C(=O)Nc2ccccc2C)cc1` the GI50 [1] was > 100 µM (inactive), the GI50 [2] was > 100 µM (inactive) and the GI50 [4] was > 100 µM (inactive). The GI50 [5] was > 100 µM (inactive), the GI50 [6] was > 100 µM (inactive) and the GI50 [7] was > 100 µM (inactive). For the same compound, the GI50 [8] was > 100 µM (inactive).
`N=C(N)NCCCC(Nc1c2ccccc2nc2ccccc12)C(=O)O` (centres undefined) was tested, and the GI50 [1] was > 100 µM (inactive), the GI50 [4] was > 100 µM (inactive) and the GI50 [9] was 75.3 µM (inactive). For the same compound, the GI50 [6] was > 100 µM (inactive), the GI50 [7] was > 100 µM (inactive) and the GI50 [8] was > 100 µM (inactive).
`O=C1C(c2cnc3ccccc3n2)=C(O)c2ccccc21` was tested, and the GI50 [1] was > 100 µM (inactive), the GI50 [4] was 0.281 µM (active) and the GI50 [9] was > 100 µM (inactive). For the same compound, the GI50 [5] was > 100 µM (inactive), the GI50 [6] was > 100 µM (inactive) and the GI50 [8] was > 100 µM (inactive).
With `COC1(OC)C2(Cl)C(Cl)=C(Cl)C1(Cl)C1C2C2CC1(C(=O)O)c1ccccc12` (centres undefined) the GI50 [1] was 18.9 µM (inactive), the GI50 [2] was 41.2 µM (inactive) and the GI50 [4] was 19 µM (inactive). For the same compound, the GI50 [9] was 22.4 µM (inactive), the GI50 [6] was 14.6 µM (inactive) and the GI50 [7] was 17.8 µM (inactive). For the same compound, the GI50 [8] was 24.2 µM (inactive).
In the case of `CC(O[Si](C)(C)C)C1C=CC(C)n2c(=O)n(-c3ccccc3)c(=O)n21` (centres undefined), the GI50 [1] is reported as > 100 µM (inactive), the GI50 [2] is reported as > 100 µM (inactive) and the GI50 [5] is reported as > 100 µM (inactive). The GI50 [7] was > 100 µM (inactive).
`Cc1cccc2c1NC(c1c(C)[nH]c3ccccc13)C2` (centres undefined) was tested, and the GI50 [1] was > 100 µM (inactive), the GI50 [2] was > 100 µM (inactive) and the GI50 [3] was 51.9 µM (inactive). For the same compound, the GI50 [9] was > 100 µM (inactive), the GI50 [6] was > 100 µM (inactive) and the GI50 [7] was > 100 µM (inactive). For the same compound, the GI50 [8] was > 100 µM (inactive).
`COc1ccc(C2=NN(C(=O)COc3ccc(Cl)cc3)C(O)(c3ccc(Cl)cc3)C2)cc1` (centres undefined) was tested, and the GI50 [3] was > 100 µM (inactive), the GI50 [4] was > 100 µM (inactive) and the GI50 [9] was > 100 µM (inactive). For the same compound, the GI50 [5] was 66.5 µM (inactive), the GI50 [6] was > 100 µM (inactive) and the GI50 [7] was > 100 µM (inactive). For the same compound, the GI50 [8] was > 100 µM (inactive).
In the case of `CCCCc1c2c(nc3c1CCc1cc4cc5c(nc4nc1-3)-c1nc3c(c(CCCC)c1CC5)CCCC3)CCCC2`, the GI50 [1] is reported as 54 µM (inactive), the GI50 [4] is reported as 42.2 µM (inactive) and the GI50 [5] is reported as > 100 µM (inactive). For the same compound, the GI50 [6] was 18 µM (inactive), the GI50 [7] was 59.8 µM (inactive) and the GI50 [8] was 22.8 µM (inactive).
With `CCCC12Cc3c(OC)ccc(OC)c3CC(Cc3c(OC)ccc(OC)c31)C2=O` (centres undefined) the GI50 [1] was > 100 µM (inactive), the GI50 [4] was > 100 µM (inactive) and the GI50 [5] was > 100 µM (inactive). For the same compound, the GI50 [6] was 10.2 µM (inactive) and the GI50 [7] was > 100 µM (inactive).
For `Cc1cc2c(=O)cc(-c3cccs3)oc2c(C(=O)O)c1C`, the GI50 [1] was > 100 µM (inactive), the GI50 [4] was > 100 µM (inactive) and the GI50 [6] was 49.4 µM (inactive). For the same compound, the GI50 [7] was > 100 µM (inactive) and the GI50 [8] was > 100 µM (inactive).
With `C=C1c2[nH]c3c([N+](=O)[O-])c(OC)ccc3c2CCN1C(C)=O` the GI50 [4] was > 100 µM (inactive), the GI50 [5] was > 100 µM (inactive) and the GI50 [6] was > 100 µM (inactive). The GI50 [7] was 22.1 µM (inactive) and the GI50 [8] was > 100 µM (inactive).
For `COc1ccc(/C=N/Nc2nc(-c3cc4oc(=O)n(C)c4cc3Cl)cs2)cc1OC`, the GI50 [1] was 7.8 µM (inactive), the GI50 [2] was > 100 µM (inactive) and the GI50 [3] was 10.7 µM (inactive). For the same compound, the GI50 [4] was 11.9 µM (inactive), the GI50 [9] was 21 µM (inactive) and the GI50 [5] was 37.2 µM (inactive). For the same compound, the GI50 [6] was 15.3 µM (inactive), the GI50 [7] was 10.7 µM (inactive) and the GI50 [8] was 15.7 µM (inactive).
`CC(C)(C)C1=CC(=N/N=c2\scc(-c3ccccc3)n2-c2ccccc2)C=C(C(C)(C)C)C1=O` was tested, and the GI50 [1] was > 100 µM (inactive), the GI50 [2] was > 100 µM (inactive) and the GI50 [3] was > 100 µM (inactive). The GI50 [4] was > 100 µM (inactive), the GI50 [5] was > 100 µM (inactive) and the GI50 [6] was > 100 µM (inactive). For the same compound, the GI50 [7] was > 100 µM (inactive) and the GI50 [8] was > 100 µM (inactive).
With `O=C(NNc1ccccc1)/C(=C/c1ccc2c(c1)OCO2)NC(=O)c1ccccc1` the GI50 [2] was > 100 µM (inactive), the GI50 [3] was > 100 µM (inactive) and the GI50 [4] was > 100 µM (inactive). The GI50 [5] was > 100 µM (inactive), the GI50 [6] was > 100 µM (inactive) and the GI50 [7] was > 100 µM (inactive). The GI50 [8] was > 100 µM (inactive).
`CC(C)(C)C(=O)CC(=O)C(C)(C)C.CC(C)(C)C(=O)CC(=O)C(C)(C)C.[SiH4]` was tested, and the GI50 [1] was 1.86 µM (inactive), the GI50 [2] was 2.36 µM (inactive) and the GI50 [3] was 0.519 µM (active). For the same compound, the GI50 [4] was 0.446 µM (active), the GI50 [6] was 1.56 µM (inactive) and the GI50 [7] was 0.436 µM (active). The GI50 [8] was 1.62 µM (inactive).
`COc1ccc(-c2cc(=O)c3c(OC)cccc3o2)c(OC)c1OC` was tested, and the GI50 [1] was > 100 µM (inactive), the GI50 [4] was > 100 µM (inactive) and the GI50 [5] was > 100 µM (inactive). The GI50 [6] was 82.2 µM (inactive), the GI50 [7] was 95.1 µM (inactive) and the GI50 [8] was > 100 µM (inactive).
With `O=C1Cc2c([nH]c3ccccc23)-c2ccccc2N1` [PAULLONE] the GI50 [1] was 53.1 µM (inactive), the GI50 [2] was > 100 µM (inactive) and the GI50 [3] was 31.6 µM (inactive). The GI50 [4] was 31.1 µM (inactive), the GI50 [5] was > 100 µM (inactive) and the GI50 [6] was 19.1 µM (inactive). For the same compound, the GI50 [7] was 33.3 µM (inactive) and the GI50 [8] was 21.4 µM (inactive).
